# Target: T1, PIP4K2C (Homo sapiens, UniProt Q8TBX8)
# T1 sequence (Q8TBX8 1-421): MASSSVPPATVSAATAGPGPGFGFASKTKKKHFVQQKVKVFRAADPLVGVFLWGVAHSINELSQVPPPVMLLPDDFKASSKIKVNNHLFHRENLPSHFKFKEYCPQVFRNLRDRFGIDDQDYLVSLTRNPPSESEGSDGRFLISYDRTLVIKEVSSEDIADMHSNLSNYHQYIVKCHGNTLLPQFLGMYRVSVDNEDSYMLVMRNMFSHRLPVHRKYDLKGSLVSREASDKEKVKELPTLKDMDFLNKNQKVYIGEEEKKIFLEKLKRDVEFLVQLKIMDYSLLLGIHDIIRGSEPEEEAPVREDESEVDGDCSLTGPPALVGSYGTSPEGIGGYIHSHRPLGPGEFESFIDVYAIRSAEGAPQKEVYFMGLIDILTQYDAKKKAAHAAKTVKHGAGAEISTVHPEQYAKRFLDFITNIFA
# Assay: HiBiT PIP4K2C degradation assay in MOLT-4 cells (endogenous PIP4K2C C-terminally tagged with HiBiT)
# Format: cell-based
# Design: untagged in primary human PBMCs and monocyte-derived dendritic cells
# Conditions: 6 hours of incubation time, rather than 24 hours; MOLT-4, top concentration 10 micromolar; read-out: HiBIT-degradation MOLT4 PIP4k2C DC50 (6 hours, marked *)
# Procedure, shortened: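 Luminescent HiBiT lytic readout of residual PIP4K2C-HiBiT (CRISPR knock-in, MOLT-4, phenol red-free RPMI-1640 + 10% FBS). Cells exposed 6 or 24 h at 37 C to compound, top 10 micromolar, 3-fold, 10 points, duplicate. Hill fit (Levenberg-Marquardt) gives DC50.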
row,SMILES,DC50
1,"O=C1CCC(Nc2ccc(C3CCN(CCC4CCN(C(=O)[C@@H]5CCC[C@H](Nc6ncc(F)c(-c7cccc(-n8ccccc8=O)c7)n6)C5)CC4)CC3)c(F)c2)C(=O)N1 (stereo partly drawn) [Compound 308, 3-((3-fluoro-4-(1-(2-(1-((1R,3S)-3-((5-fluoro-4-(3-(2-oxopyridin-1(2H)-yl)phenyl)pyrimidin-2-yl)amino)cyclohexane-1-carbonyl)piperidin-4-yl)ethyl)piperidin-4-yl)phenyl)amino)piperidine-2,6-dione]",< 500 nM

# Same assay, conditions: 24 hours incubation, MOLT-4, top concentration 10 micromolar; read-out: HiBIT-degradation MOLT4 PIP4k2C 24 hours DC50
row,SMILES,DC50
1,"Cn1c(=O)n(C2CCC(=O)NC2=O)c2ccc(C3CCN(CC4CCN(CC(=O)N5CCC(Nc6ncc(Cl)c(-c7cccc(-c8ccc(F)cc8)c7)n6)CC5)CC4)CC3)cc21 (centres unmarked) [Compound 287, 3-(5-(1-((1-(2-(4-((5-chloro-4-(4′-fluoro-[1,1′-biphenyl]-3-yl)pyrimidin-2-yl)amino)piperidin-1-yl)-2-oxoethyl)piperidin-4-yl)methyl)piperidin-4-yl)-3-methyl-2-oxo-2,3-dihydro-1H-benzo[d]imidazol-1-yl)piperidine-2,6-dione]",< 500 nM
2,"Cn1c(=O)n(C2CCC(=O)NC2=O)c2ccc(C3CCN(CC4CCN(CC(=O)N5CCC(Nc6ncc(F)c(-c7cccc(-c8ccc(F)cc8)c7)n6)CC5)CC4)CC3)cc21 (centres unmarked) [Compound 288, 3-(5-(1-((1-(2-(4-((5-fluoro-4-(4′-fluoro-[1,1′-biphenyl]-3-yl)pyrimidin-2-yl)amino)piperidin-1-yl)-2-oxoethyl)piperidin-4-yl)methyl)piperidin-4-yl)-3-methyl-2-oxo-2,3-dihydro-1H-benzo[d]imidazol-1-yl)piperidine-2,6-dione]",< 500 nM
3,"Cn1nc(C2CCC(=O)NC2=O)c2ccc(C3CCN(C(=O)CN4CCC(O)(C(=O)N5CCC(Nc6ncc(Cl)c(-c7cccc(-c8ccc(F)cc8)c7)n6)CC5)CC4)CC3)cc21 (centres unmarked) [Compound 289, 3-(6-(1-(2-(4-(4-((5-chloro-4-(4′-fluoro-[1,1′-biphenyl]-3-yl)pyrimidin-2-yl)amino)piperidine-1-carbonyl)-4-hydroxypiperidin-1-yl)acetyl)piperidin-4-yl)-1-methyl-1H-indazol-3-yl)piperidine-2,6-dione]",< 500 nM
4,"Cn1nc(C2CCC(=O)NC2=O)c2ccc(C3CCN(CC(=O)N4CCC(O)(C(=O)N5CCC(Nc6ncc(Cl)c(-c7cccc(-c8ccc(F)cc8)c7)n6)CC5)CC4)CC3)cc21 (centres unmarked) [Compound 290, 3-(6-(1-(2-(4-(4-((5-chloro-4-(4′-fluoro-[1,1′-biphenyl]-3-yl)pyrimidin-2-yl)amino)piperidine-1-carbonyl)-4-hydroxypiperidin-1-yl)-2-oxoethyl)piperidin-4-yl)-1-methyl-1H-indazol-3-yl)piperidine-2,6-dione]",< 500 nM
5,"O=C1CCC(n2c(=O)oc3c(C4CCN(C(=O)CN5CCC(C(=O)N6CCC(Nc7ncc(Cl)c(-c8cccc(-c9ccc(F)cc9)c8)n7)CC6)CC5)CC4)cccc32)C(=O)N1 (centres unmarked) [Compound 293, 3-(7-(1-(2-(4-(4-((5-chloro-4-(4′-fluoro-[1,1′-biphenyl]-3-yl)pyrimidin-2-yl)amino)piperidine-1-carbonyl)piperidin-1-yl)acetyl)piperidin-4-yl)-2-oxobenzo[d]oxazol-3 (2H)-yl)piperidine-2,6-dione]",< 500 nM
6,"O=C1CCC(n2c(=O)oc3cc(C4CCN(CC5CCN(CC(=O)N6CCC(Nc7ncc(Cl)c(-c8cccc(-c9ccc(F)cc9)c8)n7)CC6)CC5)CC4)ccc32)C(=O)N1 (centres unmarked) [Compound 294, 3-(6-(1-((1-(2-(4-((5-chloro-4-(4′-fluoro-[1,1′-biphenyl]-3-yl)pyrimidin-2-yl)amino)piperidin-1-yl)-2-oxoethyl)piperidin-4-yl)methyl)piperidin-4-yl)-2-oxobenzo[d]oxazol-3 (2H)-yl)piperidine-2,6-dione]",< 500 nM
7,"O=C1CCC(N2Cc3c(OC4CCN(C5CCCN(CC(=O)N6CCC(Nc7ncc(Cl)c(-c8cccc(-c9ccc(F)cc9)c8)n7)CC6)C5)CC4)cccc3C2=O)C(=O)N1 (centres unmarked) [Compound 296, 3-(4-((1′-(2-(4-((5-chloro-4-(4′-fluoro-[1,1′-biphenyl]-3-yl)pyrimidin-2-yl)amino)piperidin-1-yl)-2-oxoethyl)-[1,3′-bipiperidin]-4-yl)oxy)-1-oxoisoindolin-2-yl)piperidine-2,6-dione]",< 500 nM
8,"Cn1c(=O)n(C2CCC(=O)NC2=O)c2ccc(C3CCN(C4CCN(CCC(=O)N5CCC(Nc6ncc(Cl)c(-c7cccc(-c8ccc(F)cc8)c7)n6)CC5)CC4)CC3)cc21 (centres unmarked) [Compound 300, 3-(5-(1′-(3-(4-((5-chloro-4-(4′-fluoro-[1,1′-biphenyl]-3-yl)pyrimidin-2-yl)amino)piperidin-1-yl)-3-oxopropyl)-[1,4′-bipiperidin]-4-yl)-3-methyl-2-oxo-2,3-dihydro-1H-benzo[d]imidazol-1-yl)piperidine-2,6-dione]",< 500 nM
9,"Cn1c(=O)n(C2CCC(=O)NC2=O)c2ccc(C3CCN(CC4CCN(CC(=O)N[C@H]5CC[C@H](Nc6ncc(F)c(-c7cccc(-n8ccccc8=O)c7)n6)CC5)CC4)CC3)cc21 (stereo partly drawn) [Compound 301, trans-2-(4-((4-(1-(2,6-dioxopiperidin-3-yl)-3-methyl-2-oxo-2,3-dihydro-1H-benzo[d]imidazol-5-yl)piperidin-1-yl)methyl)piperidin-1-yl)-N-(4-((5-fluoro-4-(3-(2-oxopyridin-1(2H)-yl)phenyl)pyrimidin-2-yl)amino)cyclohexyl)acetamide]",< 500 nM
10,"O=C1CCC(n2c(=O)oc3cc(C4CCN(CC5CCN(CC(=O)N6CCC(Nc7ncc(F)c(-c8cccc(-n9ccccc9=O)c8)n7)CC6)CC5)CC4)ccc32)C(=O)N1 (centres unmarked) [Compound 303, 3-(6-(1-((1-(2-(4-((5-fluoro-4-(3-(2-oxopyridin-1(2H)-yl)phenyl)pyrimidin-2-yl)amino)piperidin-1-yl)-2-oxoethyl)piperidin-4-yl)methyl)piperidin-4-yl)-2-oxobenzo[d]oxazol-3 (2H)-yl)piperidine-2,6-dione]",< 500 nM
11,"Cn1nc(C2CCC(=O)NC2=O)c2ccc(C3CCN(CC4CCN(CC(=O)N[C@H]5CC[C@H](Nc6ncc(F)c(-c7cccc(-n8ccccc8=O)c7)n6)CC5)CC4)CC3)cc21 (stereo partly drawn) [Compound 304, trans-2-(4-((4-(3-(2,6-dioxopiperidin-3-yl)-1-methyl-1H-indazol-6-yl)piperidin-1-yl)methyl)piperidin-1-yl)-N-(4-((5-fluoro-4-(3-(2-oxopyridin-1(2H)-yl)phenyl)pyrimidin-2-yl)amino)cyclohexyl)acetamide]",< 500 nM
12,"O=C1CCC(Nc2ccc(N3CCC(N4CCC(C(=O)N[C@H]5CC[C@H](Nc6ncc(F)c(-c7cccc(-n8ccccc8=O)c7)n6)CC5)CC4)CC3)c(F)c2)C(=O)N1 (stereo partly drawn) [Compound 305, trans-1′-(4-((2,6-dioxopiperidin-3-yl)amino)-2-fluorophenyl)-N-(4-((5-fluoro-4-(3-(2-oxopyridin-1(2H)-yl)phenyl)pyrimidin-2-yl)amino)cyclohexyl)-[1,4′-bipiperidine]-4-carboxamide]",< 500 nM
13,"O=C1CCC(Nc2ccc(C3CCN(CCC4CCN(C(=O)[C@H]5CCC[C@@H](Nc6ncc(F)c(-c7cccc(-n8ccccc8=O)c7)n6)C5)CC4)CC3)c(F)c2)C(=O)N1 (stereo partly drawn) [Compound 309, 3-((3-fluoro-4-(1-(2-(1-((1S,3R)-3-((5-fluoro-4-(3-(2-oxopyridin-1(2H)-yl)phenyl)pyrimidin-2-yl)amino)cyclohexane-1-carbonyl)piperidin-4-yl)ethyl)piperidin-4-yl)phenyl)amino)piperidine-2,6-dione]",> 5000 nM
14,"O=C1CCC(Nc2ccc(C3CCN(CCC4CCN(C(=O)[C@@H]5CCC[C@H](Nc6ncc(F)c(-c7cccc(-n8ccccc8=O)c7)n6)C5)CC4)CC3(F)F)c(F)c2)C(=O)N1 (stereo partly drawn) [Compound 310, 3-[4-[3,3-difluoro-1-[2-[1-[(1R,3S)-3-[[5-fluoro-4-[3-(2-oxo-1-pyridyl)phenyl]pyrimidin-2-yl]amino]cyclohexanecarbonyl]-4-piperidyl]ethyl]-4-piperidyl]-3-fluoro-anilino]piperidine-2,6-dione]",< 500 nM
15,"O=C1CCC(Nc2ccc(C3CCN(CCC4CCN(C(=O)[C@H]5CCC[C@@H](Nc6ncc(F)c(-c7cccc(-n8ccccc8=O)c7)n6)C5)CC4)CC3(F)F)c(F)c2)C(=O)N1 (stereo partly drawn) [Compound 311, 3-((4-(3,3-difluoro-1-(2-(1-((1S,3R)-3-((5-fluoro-4-(3-(2-oxopyridin-1(2H)-yl)phenyl)pyrimidin-2-yl)amino)cyclohexane-1-carbonyl)piperidin-4-yl)ethyl)piperidin-4-yl)-3-fluorophenyl)amino)piperidine-2,6-dione]",< 500 nM
16,"Cn1c(=O)n(C2CCC(=O)NC2=O)c2ccc(C3CCN(CC4CCN(CC(=O)N5CCC(Nc6ncc(F)c(-c7cccc(-n8ccccc8=O)c7)n6)CC5)CC4)CC3)cc21 (centres unmarked) [Compound 312, 3-(5-(1-((1-(2-(4-((5-fluoro-4-(3-(2-oxopyridin-1(2H)-yl)phenyl)pyrimidin-2-yl)amino)piperidin-1-yl)-2-oxoethyl)piperidin-4-yl)methyl)piperidin-4-yl)-3-methyl-2-oxo-2,3-dihydro-1H-benzo[d]imidazol-1-yl)piperidine-2,6-dione]",< 500 nM

# — patent US20260355196A1, “INHIBITORS AND DEGRADERS OF PIP4K PROTEIN” (Larkspur Biosciences, Inc., priority 2023, published 2026)
